Literature values, collected in patent publication US10570353B2, “Cleaning compositions” (Ascent IP Holdings, LLC, priority 2009, dated 2020).

B1: LIPOLASE® 100L: lipase derived from Thermomyces lanuginosus, from Novo-Nordisk A/S, liquid solution (protein, UniProt O59952 23-291, looked up)
Lipase: EVSQDLFNQFNLFAQYSAAAYCGKNNDAPAGTNITCTGNACPEVEKADATFLYSFEDSGVGDVTGFLALDNTNKLIVLSFRGSRSIENWIGNLNFDLKEINDICSGCRGHDGFTSSWRSVADTLRQKVEDAVREHPDYRVVFTGHSLGGALATVAGADLRGNGYDIDVFSYGAPRVGNRAFAEFLTVQTGGTLYRITHTNDIVPRLPPREFGYSHSSPEYWIKSGTLVPVTRNDIVKIEGIDATGGNNQPNIPDIPAHLWYFGLIGTCL
modifications: liquid commercial formulation
notes: lipase derived from Thermomyces lanuginosus, from Novo-Nordisk A/S, liquid solution
B2: LIPOLASE® 100T: lipase derived from Thermomyces lanuginosus, from Novo-Nordisk A/S, granular solid (protein, UniProt O59952 23-291, looked up)
Lipase: B1 Lipase
modifications: granular commercial formulation
notes: lipase derived from Thermomyces lanuginosus, from Novo-Nordisk A/S, granular solid

What was measured:
[1] = identified from data sources
[2] = trace constituents of Trilon M Liquid
[3] = published toxicity data
[4] = supplier's nominal lipase activity

Molecule | skin sensitizer listing [1] | other results
Cn1sc(Cl)cc1=O [5-Chloro-2-Methyl-4-isothiazolin-3-one] | skin sensitizers | 
C=O [formaldehyde] |  | carcinogenicity listing [2]: suspected carcinogens
cocamidopropyl betaine | skin sensitizers | 
Cn1sccc1=O [2-Methyl-4-isothiazolin-3-one] | skin sensitizers | 
O=C([O-])CN(CC(=O)[O-])CC(=O)[O-].[Na+].[Na+].[Na+] [trisodium nitrilotriacetate] |  | carcinogenicity listing [2]: suspected carcinogens
[Na+].[OH-] [sodium hydroxide] | skin sensitizers | 
OO [hydrogen peroxide] | skin sensitizers | mutagenicity [3]: potential risk for mutagenicity
B1 |  | nominal activity [4]: 100 kLU/g
B2 |  | nominal activity [4]: 100 kLU/g
